Test systems include ACHN; CAKI-1; COLO 205; DU-145; HL-60; HOP-62; IGROV-1; LOX IMVI; M14; NCI-H23; NCI-H460; NCI/ADR-RES; OVCAR-8; SF-295; SK-MEL-2; SW-620; TK-10; UACC-257; MCF7.
Holding throughout (assay): NCI-60 cell line screen, 48 h

Each structure is given as a SMILES string.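 Values below derive from 48-hour exposures of cells grown in 96-well plates, with endpoints linearly interpolated between the two concentrations bracketing the appropriate inhibition level. Abbreviation: GI50, concentration required for 50% inhibition of growth.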 Active and inactive are the calls of the source. Cut-off read from the data, not from the text of the source: active = GI50 up to about 1.1 µM and inactive = higher.

Regarding `COc1ccc(NC(=S)NN=C(C)c2cccc(C(C)=NNC(=S)Nc3ccc(OC)cc3)n2)cc1`, the GI50 in the experiment on ACHN is 4.74 µM (inactive); in the experiment with CAKI-1 it was 11.4 µM (inactive); with COLO 205, 4.45 µM (inactive); in the experiment with DU-145, > 100 µM (inactive); in the experiment on HL-60, 20.5 µM (inactive); in the experiment on HOP-62 it was 26.1 µM (inactive). Besides, the GI50 in the experiment on IGROV-1 was 0.857 µM (active); in the experiment with LOX IMVI it was 13.6 µM (inactive); in the experiment on M14 it was 11.2 µM (inactive); in the experiment on NCI-H23, 64 µM (inactive); in the experiment on NCI-H460, 12.4 µM (inactive); in the experiment with NCI/ADR-RES, 8.59 µM (inactive). For the same compound, the GI50 was 9.51 µM (inactive) with OVCAR-8; 11.2 µM (inactive) with SF-295; > 100 µM (inactive) with SK-MEL-2; 64.7 µM (inactive) in the experiment with SW-620; 58.2 µM (inactive) with TK-10; > 100 µM (inactive) with UACC-257.
Take `Cc1ccc(S(=O)(=O)NC(=O)NC23CC4CC(CC(F)(C4)C2)C3)cc1`: the GI50 with ACHN, in the experiment with COLO 205, in the experiment on HL-60, with HOP-62, in the experiment on IGROV-1 and with LOX IMVI was > 100 µM (inactive) throughout. For the same compound, the GI50 in the experiment on M14, in the experiment on NCI-H23, in the experiment on NCI-H460, in the experiment with OVCAR-8, in the experiment with SK-MEL-2 and in the experiment with SW-620 was > 100 µM (inactive) throughout. For the same compound, the GI50 in the experiment on TK-10 and in the experiment with UACC-257 was > 100 µM (inactive) each time.
As to `CCN(CC)c1c(-c2c(N(CC)CC)c(OC(C)=O)c3sccn3c2=O)c(=O)n2ccsc2c1OC(C)=O`, the GI50 is > 100 µM (inactive) in the experiment with ACHN; > 100 µM (inactive) in the experiment with CAKI-1; > 100 µM (inactive) in the experiment on COLO 205; > 100 µM (inactive) in the experiment with DU-145; > 100 µM (inactive) with HL-60; 21.3 µM (inactive) with HOP-62. Besides, the GI50 with IGROV-1 was 68.1 µM (inactive); with LOX IMVI, > 100 µM (inactive); in the experiment on M14 it was > 100 µM (inactive); in the experiment on NCI-H23 it was > 100 µM (inactive); in the experiment with NCI-H460 it was > 100 µM (inactive); with NCI/ADR-RES, 49.5 µM (inactive). Moreover, the GI50 in the experiment on OVCAR-8 is 33 µM (inactive); in the experiment on SF-295, 32 µM (inactive); with SK-MEL-2 it was 93.8 µM (inactive); with SW-620 it was > 100 µM (inactive); with TK-10, 33.2 µM (inactive); with UACC-257, > 100 µM (inactive).
Turning to `O=C(c1ccc(Cl)cc1)c1ccc(OCCCOc2ccc(C(=O)c3ccc(Cl)cc3)cc2Cl)c(Cl)c1`, the GI50 with ACHN, in the experiment with CAKI-1, in the experiment on COLO 205, with HL-60, with HOP-62 and with IGROV-1 was > 100 µM (inactive) each time. Moreover, the GI50 with LOX IMVI, in the experiment with M14, in the experiment with NCI-H23, with NCI-H460, in the experiment on OVCAR-8 and in the experiment with SF-295 was > 100 µM (inactive) in each case. Moreover, the GI50 in the experiment on SK-MEL-2, in the experiment with SW-620, in the experiment on TK-10 and in the experiment with UACC-257 was > 100 µM (inactive) throughout.
With `CC(=O)COC(=O)CC(C)=O`, the GI50 in the experiment with ACHN, in the experiment on CAKI-1, in the experiment with COLO 205, with HL-60, in the experiment with HOP-62 and with IGROV-1 was > 100 µM (inactive) each time. The GI50 with LOX IMVI, in the experiment on M14, in the experiment on NCI-H23, in the experiment on NCI-H460, in the experiment on OVCAR-8 and in the experiment with SF-295 was > 100 µM (inactive) each time. Besides, the GI50 in the experiment on SK-MEL-2, with SW-620, in the experiment on TK-10 and in the experiment with UACC-257 was > 100 µM (inactive) in each case.
With `CC(=O)NC(C)(C)C1CC=C(C)/C(=N\O)C1` (stereo unspecified), the GI50 in the experiment on COLO 205, in the experiment with DU-145, in the experiment with HL-60, with HOP-62, in the experiment with IGROV-1 and in the experiment with LOX IMVI was > 100 µM (inactive) in each case. In addition, the GI50 in the experiment on M14, in the experiment with MCF7, in the experiment with NCI-H23, in the experiment with NCI-H460, in the experiment on OVCAR-8 and in the experiment with SF-295 was > 100 µM (inactive) in each case. Also, the GI50 in the experiment with SW-620, in the experiment on TK-10 and in the experiment with UACC-257 was > 100 µM (inactive) each time.
With `CCOC(=O)C(=CNC(=S)c1ccncc1)C(=O)OCC`, the GI50 in the experiment on ACHN, in the experiment on CAKI-1, with COLO 205, with DU-145, in the experiment on HL-60 and with HOP-62 was > 100 µM (inactive) in each case. Besides, the GI50 in the experiment with IGROV-1, in the experiment on LOX IMVI, in the experiment on M14, with MCF7, in the experiment on NCI-H23 and in the experiment on NCI-H460 was > 100 µM (inactive) in each case. The GI50 in the experiment with SF-295, in the experiment with SK-MEL-2, in the experiment with SW-620, in the experiment with TK-10 and with UACC-257 was > 100 µM (inactive) each time.
As to `CC1OC(OC2C(CO)OC(O[C@H]3CC[C@@]4(C)C(=CC[C@H]5[C@@H]6C[C@@H]7O[C@](O)(CC[C@@H](C)COC8OC(CO)C(O)C(O)C8O)[C@@H](C)[C@@H]7[C@@]6(C)CC[C@@H]54)C3)C(OC3OC(C)C(O)C(O)C3O)C2O)C(O)C(O)C1O` (stereo partly specified), the GI50 with ACHN is 5.28 µM (inactive); in the experiment with CAKI-1, 2.47 µM (inactive); in the experiment on COLO 205, 2.56 µM (inactive); in the experiment with DU-145, 2.3 µM (inactive); with HL-60, 2.13 µM (inactive); in the experiment with HOP-62 it was 2.16 µM (inactive). For the same compound, the GI50 in the experiment with LOX IMVI was 1.56 µM (inactive); with M14, 1.91 µM (inactive); in the experiment on NCI-H23, 3.55 µM (inactive); with NCI-H460, 1.88 µM (inactive); with NCI/ADR-RES, 2.06 µM (inactive); in the experiment on OVCAR-8, 2.19 µM (inactive). The GI50 in the experiment on SF-295 was 3.91 µM (inactive); in the experiment with SK-MEL-2 it was 4.98 µM (inactive); with SW-620, 1.45 µM (inactive); with TK-10 it was 8.45 µM (inactive); with UACC-257, 4.02 µM (inactive).
